US20220274947A1, “NOVEL HETEROARYL-TRIAZOLE COMPOUNDS AS PESTICIDES” (Bayer Aktiengesellschaft, priority 2019, published 2022)

System: Aedes aegypti strain MONHEIM
Assay: Aedes aegypti test (AEDSAE surface treatment & contact assay)
Assay type: in vivo
Conditions: surface concentration 20 mg/m^2, glazed tile, exposure 30 minutes, 24 hours after contact, read-out: efficacy (mortality)
Protocol: Aedes aegypti Test (AEDSAE Surface Treatment & Contact Assay) Solvent: Aceton+2000 ppm rapeseed oil methyl ester (RME)
In order to produce a sufficient, active ingredient containing solution it is necessary to solve the test compound in the solvent-mix (acetone at 2 mg/ml/RME 2000 ppm). This solution is pipetted onto a glazed tile and after evaporation of the acetone, adult mosquitoes of the species Aedes aegypti strain MONHEIM are placed onto the dried surface. The exposure time is 30 minutes. Mortality in percent (%) is determined 24 hours after contact of the insects to the treated surface. 100% mortality means that all tested insects are dead, whereas 0% means that no insect died.

Q: Which mortality at 20 mg/m2 does the source give for C[C@H](NC(=O)c1cc(Cl)cc(C(F)F)c1)c1ncnn1-c1ccc(C#N)cn1 [II- 12] here?
A: Its mortality at 20 mg/m2 is 80 to 100%.
